ChEMBL document CHEMBL1124053, “Synthesis, pharmacology, and molecular modeling studies of semirigid, nicotinic agonists” (1988)

Assay: Potency (reciprocal of the equipotent molar ratio compared to carbamylcholine), estimated by contracture of the frog rectus abdominis muscle
Type: functional

SMILES | Potency
CC(=O)C1CC[N+](C)(C)CC1 | 9.1
CC(=O)N1CC[N+](C)(C)CC1 | 2.6
CC(=O)C1=CC[N+](C)(C)CC1 | 50
C[N+]1(C)CCN(C(=O)C(F)(F)F)CC1 | 4.6
C[C@H](O)C1CC[N+](C)(C)CC1 | 0.25
C[C@H](O)C1=CC[N+](C)(C)CC1 | 2
C[N+]1(C)CC=C(CO)CC1 | 0.35
C[N+]1(C)CCC(=NO)CC1 | 0.0055
